According to patent publication US10145851B2, “Discovery and validation of cancer biomarkers using a protein analysis methodology to analyze specimens” (The Board of Trustees of the Leland Stanford Junior …, priority 2009, dated 2018):
“Also recorded” adds a separate entry of the source. Where a name gives a salt, the structure may show the parent alone.

What was measured:
[1] = test system: human leukemic cell line TF1; assay: NIA of TF1 cells before and after treatment with ON01910; type: cell-based
Procedure: Using a single antibody that recognizes both the phosphorylated and unphosphorylated isoforms of ERK, we can determine levels of each ERK isoform, and also percent phosphorylation of ERK. […] To determine if NIA can measure signaling changes during treatment with novel drugs, human leukemic cells were treated with a PLK-1 inhibitor, ON01910 (Onconova, Inc). […] MEK2 phosphorylation decreased by 20% after ON01910 treatment. […] Treatment with ON01910 altered phosphorylation of signaling proteins in TF1 cells.

K562 human CML cell line = assay: NIA of K562 CML cells treated with imatinib in vitro; type: cell-based; parameters: activated caspase-3 associated with apoptosis: dose or concentration left out as unconfirmed
Procedure: The NIA experiments were performed using a Firefly™ or CB1000™ instrument (Cell Biosciences). Briefly, for each capillary analysis, 4 nanoliters of 10 mg/ml lysate were diluted to 0.2 mg/ml in 200 nanoliters HNG-based lysis buffer [20 mM Hepes pH 7.5, 25 mM NaCl, 0.1%, 10% glycerol, Sigma Phosphatase Inhibitor Cocktail 1, Calbiochem Protease Inhibitor] or 200 nanoliters Bicine/CHAPS lysis buffer. 200 nanoliters sample mix containing internal pl standards were added. The Firefly system first performed a charge-based separation (isoelectric focusing) in a 5 cm long, 100 micron inner-diameter capillary. Predicted pl's were calculated using Scansite. Each sample was run on a panel of different pH gradients (3-10, 5-9) to optimize the resolution of different peak patterns. After separation and photo-activated in-capillary immobilization, proteins were detected with antibodies: MYC protein expression was detected using the C-19 rabbit polyclonal antibody that recognizes mouse and human MYC (Santa Cruz Biotechnology). BCL2 protein expression was detected using the clone 124 mouse monoclonal antibody that recognizes human BCL2 (Dako Laboratories). Total ERK1/2 protein expression was detected using a rabbit polyclonal antibody that recognizes mouse and human ERK1/2 (Upstate). Phospho-ERK 1/2 protein expression was detected using a mouse monoclonal antibody that recognizes both mouse and human pERK 1/2 (Cell Signaling). Additional antibodies used were: activated caspase 3 (Cell Signaling), MEK1 (Upstate), pMEK1 (Novus), MEK2 (Abcam), pSTAT3 (Cell Signaling), pSTAT5 (Cell Signaling), pJNK (Cell Signaling), HSP70 (Novus).
Quantitation of the peaks is performed using peak analysis software. The start and end of each peak, and a flat baseline were manually selected. The area of each peak was calculated by dropping verticals to the baseline at the peak start and end, and summing the area between the start and endpoints. […] The areas under different peaks within a single tracing represented various ERK isoforms. […]

mouse model of lymphoma = conditions: associated with specific changes in oncoprotein signaling; cited from earlier work
[2] = test system: phosphorylation of STAT3/5; assay: NIA/FACS of tumor cells of lymphoma patients treated with atorvastatin; type: in vivo, human
Source text: FIG. 5A-5C. NIA detected decrease in oncoproteins upon treatment with biologic response modifying therapeutic agent. (FIG. 5A) Schematic for the use of NIA to assess proteomic changes in clinical tumor specimens. Patients undergo pretreatment tumor sampling at baseline and again after 8 d of treatment with atorvastatin. (FIG. 5B) NIA analysis of tumor cells for changes in pSTAT3 and pSTAT5. (FIG. 5C) NIA quantification of pSTAT3 and pSTAT5±s.e.m. Samples were run in triplicate.
Predicted pl's were calculated using Scansite.
Phosphorylation of STAT3/5 decreased in lymphoma patients treated with atorvastatin. Tumor cells were sampled from lymphoma patients day 1 and day 8 of atorvastatin treatment.

[3] = TF1 cells after 24 hr of treatment

COc1cc(OC)c(/C=C/S(=O)(=O)Cc2ccc(OC)c(NCC(=O)O)c2)c(OC)c1 [ON01910]
MEK2 phosphorylation decrease ([1]; TF1 cell line after ON01910 treatment): 20%
phosphorylation of JNK [1, 3]: increased phosphorylation
phosphorylation of MEK2 [1, 3]: decreased phosphorylation

Cc1ccc(NC(=O)c2ccc(CN3CCN(C)CC3)cc2)cc1Nc1nccc(-c2cccnc2)n1 [imatinib, imatinib mesylate]
phosphorylation of STAT3/5, JNK, MEK1 and MEK2 (K562 human CML cell line; K562, imatinib final concentration 10 mM in vitro, 0 h, 4 h and 20 h): changes in phosphorylation
activated caspase-3 associated with apoptosis (K562 human CML cell line; K562, imatinib in vitro, 0 h, 4 h and 20 h): expected increase
specific ERK2 phospho-isomer (peak 3) (K562 human CML cell line; K562, imatinib in vitro, 24 hours): decrease; also recorded: change in phospho-ERK

CC(C)c1c(C(=O)Nc2ccccc2)c(-c2ccccc2)c(-c2ccc(F)cc2)n1CC[C@@H](O)C[C@@H](O)CC(=O)O [atorvastatin]
tumor regression (mouse model of lymphoma): causes tumor regression
phosphorylation of STAT3/5 ([2]; after eight days of treatment, NIA): detectable decreases; also recorded: decreased
STAT3 and STAT5 phosphorylation in CD20 positive cells ([2]; day 1 and day 8 of treatment, NIA and FACS): dramatic decrease
